Data from patent publication US12351580B2, “NLRP3 modulators” (Innate Tumor Immunity, Inc., priority 2017, dated 2025).
pEC50: −log10 of the molar value.

What follows are compounds tested against T1, hNLRP3 (Homo sapiens, UniProt Q96P20) (assay: Measurement of IL-1β production in PMA-differentiated THP-1 cells (hNLRP3 agonist; ELISA, alternative and hTRF procedures)).
T1 construct: THP-1 cells were purchased from the American Type Culture Collection; host or cells: THP-1 cells, PMA-differentiated
T1 sequence (Q96P20 whole entry): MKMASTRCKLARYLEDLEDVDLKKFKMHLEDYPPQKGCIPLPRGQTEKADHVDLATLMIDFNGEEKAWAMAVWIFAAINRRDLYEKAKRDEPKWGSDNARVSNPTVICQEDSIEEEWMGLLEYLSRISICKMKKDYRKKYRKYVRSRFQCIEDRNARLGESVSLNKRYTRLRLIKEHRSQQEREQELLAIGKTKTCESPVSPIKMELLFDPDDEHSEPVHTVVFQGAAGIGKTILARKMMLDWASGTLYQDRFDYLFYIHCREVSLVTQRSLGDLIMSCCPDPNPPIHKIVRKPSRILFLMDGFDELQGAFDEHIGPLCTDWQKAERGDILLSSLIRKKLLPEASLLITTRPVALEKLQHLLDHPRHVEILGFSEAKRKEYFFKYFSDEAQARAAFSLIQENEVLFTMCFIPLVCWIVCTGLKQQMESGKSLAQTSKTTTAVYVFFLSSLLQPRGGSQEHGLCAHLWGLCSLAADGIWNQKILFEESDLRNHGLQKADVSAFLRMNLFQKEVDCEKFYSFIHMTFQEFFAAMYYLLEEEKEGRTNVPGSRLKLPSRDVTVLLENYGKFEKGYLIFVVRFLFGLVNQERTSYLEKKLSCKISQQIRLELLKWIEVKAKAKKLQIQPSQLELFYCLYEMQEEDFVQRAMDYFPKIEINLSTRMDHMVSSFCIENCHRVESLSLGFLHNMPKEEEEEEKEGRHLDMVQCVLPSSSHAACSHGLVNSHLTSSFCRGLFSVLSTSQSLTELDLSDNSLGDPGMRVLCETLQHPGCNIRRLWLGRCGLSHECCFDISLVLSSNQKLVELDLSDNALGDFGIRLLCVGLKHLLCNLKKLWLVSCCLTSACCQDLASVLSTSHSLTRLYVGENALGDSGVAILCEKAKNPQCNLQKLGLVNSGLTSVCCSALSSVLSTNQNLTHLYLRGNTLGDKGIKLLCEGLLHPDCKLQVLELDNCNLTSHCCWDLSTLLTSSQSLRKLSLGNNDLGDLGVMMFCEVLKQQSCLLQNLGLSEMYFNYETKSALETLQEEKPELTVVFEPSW
Format: cell-based
Summary of the method: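 PMA-differentiated THP-1 cells (PMA […] 24 h, 20 μg/ml overnight, or 50 ng/ml overnight, by procedure) replated in RPMI with 2% FBS and exposed to compound (e.g. 100–0.1 μM, 1% DMSO; hTRF format top 10 μM) for 4 h, 2 h, or 2 h respectively. Supernatant IL-1β measured by ELISA, or by hTRF with antibodies diluted 1:40.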

Row | pEC50 | Compound
1 | 4.81 | N#Cc1ccc(-c2ccc3c(c2)nc(N)c2nc(CN4CCCC4=O)[nH]c23)cc1 [Compound 434]
2 | 5.89 | CCOC(=O)N(CC)Cc1nc2c(N)nc3cc(-c4cc[nH]n4)ccc3c2[nH]1 [Compound 436, Ethyl N-{[4-amino-7-(1H-pyrazol-3-yl)-1H-imidazo[4,5-c]quinolin-2-yl]methyl}-N-ethylcarbamate]
3 | 5.96 | CCN(Cc1nc2c(N)nc3cc(-c4cc[nH]n4)ccc3c2[nH]1)C(=O)Cc1cccc(C)c1 [Compound 437, N-{[4-amino-7-(1H-pyrazol-3-yl)-1H-imidazo[4,5-c]quinolin-2-yl]methyl}-N-ethyl-2-(3-methylphenyl)acetamide]
4 | 5.38 | CCN(Cc1nc2c(N)nc3cc(-c4cc[nH]n4)ccc3c2[nH]1)C(=O)c1cccnc1 [Compound 438, N-{[4-amino-7-(1H-pyrazol-3-yl)-1H-imidazo[4,5-c]quinolin-2-yl]methyl}-N-ethylpyridine-3-carboxamide]
5 | 5.24 | CCN(Cc1nc2c(N)nc3cc(-c4cc[nH]n4)ccc3c2[nH]1)C(=O)c1ccccn1 [Compound 439, N-{[4-amino-7-(1H-pyrazol-3-yl)-1H-imidazo[4,5-c]quinolin-2-yl]methyl}-N-ethylpyridine-2-carboxamide]
6 | 4.74 | CCN(Cc1nc2c(N)nc3cc(-c4cc[nH]n4)ccc3c2[nH]1)C(=O)CC(C)(C)O [Compound 440, N-{[4-amino-7-(1H-pyrazol-3-yl)-1H-imidazo[4,5-c]quinolin-2-yl]methyl}-N-ethyl-3-hydroxy-3-methylbutanamide]
7 | 6.16 | CCN(Cc1nc2c(N)nc3cc(-c4cc[nH]n4)ccc3c2[nH]1)C(=O)c1ccc(OC)cc1 [Compound 441, N-{[4-amino-7-(1H-pyrazol-3-yl)-1H-imidazo[4,5-c]quinolin-2-yl]methyl}-N-ethyl-4-methoxybenzamide]
8 | 5.59 | CCN(Cc1nc2c(N)nc3cc(-c4cc[nH]n4)ccc3c2[nH]1)C(=O)c1cnccn1 [Compound 442, N-{[4-amino-7-(1H-pyrazol-3-yl)-1H-imidazo[4,5-c]quinolin-2-yl]methyl}-N-ethylpyrazine-2-carboxamide]
9 | 6.07 | CCN(Cc1nc2c(N)nc3cc(-c4cc[nH]n4)ccc3c2[nH]1)C(=O)Cc1ccccc1 [Compound 443, N-{[4-amino-7-(1H-pyrazol-3-yl)-1H-imidazo[4,5-c]quinolin-2-yl]methyl}-N-ethyl-2-phenylacetamide]
10 | 6.03 | CCN(Cc1nc2c(N)nc3cc(-c4cc[nH]n4)ccc3c2[nH]1)C(=O)CCCc1ccccc1 [Compound 444, N-{[4-amino-7-(1H-pyrazol-3-yl)-1H-imidazo[4,5-c]quinolin-2-yl]methyl}-N-ethyl-4-phenylbutanamide]
11 | 6.13 | CCN(Cc1nc2c(N)nc3cc(-c4cc[nH]n4)ccc3c2[nH]1)C(=O)CCC(C)C [Compound 445, N-{[4-amino-7-(1H-pyrazol-3-yl)-1H-imidazo[4,5-c]quinolin-2-yl]methyl}-N-ethyl-4-methylpentanamide]
12 | 6.17 | CCN(Cc1nc2c(N)nc3cc(-c4cc[nH]n4)ccc3c2[nH]1)C(=O)c1cccn1C [Compound 446, N-{[4-amino-7-(1H-pyrazol-3-yl)-1H-imidazo[4,5-c]quinolin-2-yl]methyl}-N-ethyl-1-methyl-1H-pyrrole-2-carboxamide]
13 | 5.82 | CCN(Cc1nc2c(N)nc3cc(-c4cc[nH]n4)ccc3c2[nH]1)C(=O)CCc1ccccc1 [Compound 447, N-{[4-amino-7-(1H-pyrazol-3-yl)-1H-imidazo[4,5-c]quinolin-2-yl]methyl}-N-ethyl-3-phenylpropanamide]
14 | 6.05 | CCN(Cc1nc2c(N)nc3cc(-c4cc[nH]n4)ccc3c2[nH]1)C(=O)c1ccccc1Cl [Compound 449, N-{[4-amino-7-(1H-pyrazol-3-yl)-1H-imidazo[4,5-c]quinolin-2-yl]methyl}-2-chloro-N-ethylbenzamide]
15 | 5.35 | CCN(Cc1nc2c(N)nc3cc(-c4cc[nH]n4)ccc3c2[nH]1)C(=O)c1ccncc1 [Compound 450, N-{[4-amino-7-(1H-pyrazol-3-yl)-1H-imidazo[4,5-c]quinolin-2-yl]methyl}-N-ethylpyridine-4-carboxamide]
16 | 5.89 | CCN(Cc1nc2c(N)nc3cc(-c4cc[nH]n4)ccc3c2[nH]1)C(=O)c1cn(C)c2ccccc12 [Compound 451, N-{[4-amino-7-(1H-pyrazol-3-yl)-1H-imidazo[4,5-c]quinolin-2-yl]methyl}-N-ethyl-1-methyl-1H-indole-3-carboxamide]
17 | 5.92 | CCN(Cc1nc2c(N)nc3cc(-c4cc[nH]n4)ccc3c2[nH]1)C(=O)c1ccc(Cl)cc1 [Compound 452, N-{[4-amino-7-(1H-pyrazol-3-yl)-1H-imidazo[4,5-c]quinolin-2-yl]methyl}-4-chloro-N-ethylbenzamide]
